Experimental data taken from patent US4248880A, “Treatment of gastric ulcers with naphthimidazole derivatives” (Hoffmann-La Roche Inc., priority 1977, dated 1981).

Tests used:
[1] = LD50 in the mouse; conditions: in vivo, po, per os
[2] = tested on: stress-induced gastric ulcers; test: inhibition of the formation of stress-induced gastric ulcers in rats (water bath); format: in vivo; conditions: Rattus norvegicus, po, 6 h; female rats 140 to 160 g; per os; water bath 22.5° C. for six hours; 10 rats per dosage; Probit method; read-out: ED50 (effective dosage at which 50% of the rats are protected against stress-induced ulcers)
Description: After six hours in the water, the animals were sacrificed and the incidence of ulcers noted. The ED50, that is, the dosage at which 50% of the 10 rats utilized per dosage are protected against stress-induced ulcers by the test compound was then determined according to the Probit method.

[3] = tested on: gastric acid secretion; test: inhibition of 4-methylhistamine-stimulated gastric acid secretion in the conscious Heidenhain pouch dog; format: in vivo; conditions: Canis lupus familiaris, oral, 4-methylhistamine dihydrochloride infusion i.v., read-out: effective therapeutic dosage (per os amount causing 60-80% inhibition of acid secretion produced by 4-methylhistamine)
From the text: A part of the stomach fundus of dogs is separated from the remaining stomach in the form of a pouch according to the Heidenhain technique described by Rudick et al in J. Surgical Research, vol. 7, pp 383-398 (1967). The pouch is fitted with a steel canula conducted externally through the abdominal wall and the operation is allowed to heal. Utilizing a conscious dog prepared as above, gastric secretion is stimulated by an infusion of 4-methylhistaminedihydrochloride (40 μ/kg per hr., i.v.) which selectively stimulates histamine H2 receptors. When volumes of fifteen minute samples of gastric secretion and pH levels appear constant, the test substance is administered orally and samples again taken. […] In the context of this procedure, an effective therapeutic dosage may be defined as the amount of test substance administered per os which causes an inhibition of from 60-80% of the acid secretion produced by the administration of 4-methylhistamine.

SMILES | LD50 [1] | ED50 [2] | ED (60-80) [3]
c1ccc(CSc2nc3cc4ccccc4cc3[nH]2)nc1 [2-[(2-pyridylmethyl)thio]-1H-naphth[2,3-d]imidazole] | > 5000 mg/kg | 12 mg/kg | ~3 mg/kg
Cc1ccc(CSc2nc3cc4ccccc4cc3[nH]2)nc1 [2-/[(5-methyl-2-pyridyl)-methyl]thio/-1H-naphth[2,3-d]imidazole] | 8000 mg/kg | 31 mg/kg | ~3 mg/kg
